Source: patent US20230129721A1, “STABILIZER FOR RADIOPHARMACEUTICALS AND RADIOPHARMACEUTICAL COMPOSITION COMPRISING THE SAME” (THE ASAN FOUNDATION, priority 2020, published 2023)

Assays:
[1] = Radiochemical purity of [^18F]PI-2620 radiopharmaceutical composition over time at 40° C. by HPLC; format: physicochemical
Protocol: Fluoride ([^18F]) and 2 mg of a precursor were dissolved in dimethyl sulfoxide, and the reaction mixture was fluorinated using an SN2 reaction at a temperature of 100° C. or higher. Then, a protecting group was hydrolyzed with sulfuric acid, and the mixture was neutralized with sodium hydroxide, purified using high-performance liquid chromatography (HPLC) (purification conditions: Luna C18 250×10 mm, phosphate buffer:acetonitrile=70:30 (v/v), 5.0 mL/min, UV=254 nm), and then formulated (formulation composition: 100 mg of sodium ascorbate, 2 nM phosphate buffer, and 10% ethanol) to obtain the [^18F]PI-2620 compound having a radiochemical purity of 100% (FIG. 1).
[^18F]PI-2620 was formulated with ethanol, ascorbic acid, and a phosphate buffer, and the radiochemical purity of the radiopharmaceutical composition was then measured at the elapsed times of 0 hour, 2 hours, 4 hours, and 6 hours at a temperature of 40° C. using HPLC (analysis conditions: Luna C18 250×4.6 mm, phosphate buffer:acetonitrile=60:40 (v/v), 1.0 mL/min, UV=254 nm).
[^18F]PI-2620 was obtained as a compound having a radiochemical purity of 100% in the same manner as in Example 1. To further confirm the stability of the compound, 2 equivalents of sodium ascorbate used in Example 1 was added during a formulation process (formulation composition: 200 mg of sodium ascorbate, a 2 nM phosphate buffer, and 10% ethanol), and the radiochemical purity of the radiopharmaceutical composition was then measured in the same manner as in Example 1 at the elapsed times of 0 hour, 2 hours, 4 hours, and 6 hours at a temperature of 40° C. using high-performance liquid chromatography (HPLC)
[^18F]PI-2620 was obtained as a compound having a radiochemical purity of 100% in the same manner as in Example 1. To check the causes of a decrease in radiochemical purity, the radiochemical purity of the radiopharmaceutical composition was then measured in the same manner as in Example 1 at the elapsed times of 0 hour, 2 hours, 4 hours, and 6 hours at a temperature of 40° C. under three formulation conditions (Condition 1: ethanol and water for injection (formulation composition: 10% ethanol); Condition 2: ethanol and a phosphate buffer (formulation composition: a 2 nM phosphate buffer and 10% ethanol); Condition 3: ethanol and a 2×phosphate buffer (formulation composition: a 4 nM phosphate buffer and 10% ethanol)) using high-performance liquid chromatography (HPLC).
[^18F]PI-2620 was obtained as a compound having a radiochemical purity of 98% or more in the same manner as in Example 1. As a novel stabilizing agent, vitamin B1 (VB1), vitamin B6 (VB6), vitamin B8 (VB8), vitamin B10 (VB10), or vitamin B12 (VB12) (formulation composition: 10% ethanol and a 50 mg/mL vitamin concentration) was added to ethanol and water for injection, and the radiochemical purity of the radiopharmaceutical composition was measured in the same manner as in Example 1 at the elapsed times of 0 hour, 2 hours, 4 hours, and 6 hours at a temperature of 40° C. using high-performance liquid chromatography (HPLC). A preparation including no vitamin B was used as the control.
[^18F]PI-2620 was obtained as a compound having a radiochemical purity of 98% or more in the same manner as in Example 1, and formulated with ethanol and a phosphate buffer (formulation composition: a 2 nM phosphate buffer and 10% ethanol). As a novel stabilizing agent, vitamin B1 (VB1), vitamin B6 (VB6), vitamin B8 (VB8), or vitamin B10 (VB10) was added at a concentration of 50 mg/mL, and the radiochemical purity of the radiopharmaceutical composition was measured in the same manner as in Example 1 at the elapsed times of 0 hour, 2 hours, 4 hours, and 6 hours at a temperature of 40° C. using high-performance liquid chromatography (HPLC). A preparation in which sodium ascorbate was added to the same concentrations of ethanol and phosphate buffer was used as the control. […]

[2] = pH (paper) of [^18F]PI-2620 radiopharmaceutical composition over time at 40° C.; format: physicochemical
[3] = [^18F]PI-2620, ethanol and water for injection (10% ethanol), 50 mg/mL vitamin, no phosphate buffer, 0 hr
[4] = [^18F]PI-2620, ethanol and water for injection (10% ethanol), 50 mg/mL vitamin, no phosphate buffer, 2 hr
[5] = [^18F]PI-2620, ethanol and water for injection (10% ethanol), 50 mg/mL vitamin, no phosphate buffer, 4 hr
[6] = [^18F]PI-2620, ethanol and water for injection (10% ethanol), 50 mg/mL vitamin, no phosphate buffer, 6 hr
[7] = 10% ethanol, water for injection, 50 mg/mL vitamin, 0 hr
[8] = 10% ethanol, water for injection, 50 mg/mL vitamin, 2 hr
[9] = 10% ethanol, water for injection, 50 mg/mL vitamin, 4 hr
[10] = 10% ethanol, water for injection, 50 mg/mL vitamin, 6 hr
[11] = [^18F]PI-2620, 2 nM phosphate buffer and 10% ethanol, vitamin 50 mg/mL (control: sodium ascorbate), 0 hr
[12] = [^18F]PI-2620, 2 nM phosphate buffer and 10% ethanol, vitamin 50 mg/mL (control: sodium ascorbate), 2 hr
[13] = [^18F]PI-2620, 2 nM phosphate buffer and 10% ethanol, vitamin 50 mg/mL (control: sodium ascorbate), 4 hr
[14] = [^18F]PI-2620, 2 nM phosphate buffer and 10% ethanol, vitamin 50 mg/mL (control: sodium ascorbate), 6 hr
[15] = 2 nM phosphate buffer and 10% ethanol, vitamin 50 mg/mL (control: sodium ascorbate), 0 hr
[16] = 2 nM phosphate buffer and 10% ethanol, vitamin 50 mg/mL (control: sodium ascorbate), 2 hr
[17] = 2 nM phosphate buffer and 10% ethanol, vitamin 50 mg/mL (control: sodium ascorbate), 4 hr
[18] = 2 nM phosphate buffer and 10% ethanol, vitamin 50 mg/mL (control: sodium ascorbate), 6 hr

Row | Purity (radiochemical purity) [1, 3] [%] | Purity (radiochemical purity) [1, 4] [%] | Purity (radiochemical purity) [1, 5] [%] | Purity (radiochemical purity) [1, 6] [%] | PH (paper) [2, 7] | PH (paper) [2, 8] | PH (paper) [2, 9] | PH (paper) [2, 10] | Purity (radiochemical purity) [1, 11] [%] | Purity (radiochemical purity) [1, 12] [%] | Purity (radiochemical purity) [1, 13] [%] | Purity (radiochemical purity) [1, 14] [%] | PH (paper) [2, 15] | PH (paper) [2, 16] | PH (paper) [2, 17] | PH (paper) [2, 18] | Compound | also measured
1 | 98.33 | 98.99 | 98.7 | 98.29 | 6 | 7.5 | 6.5 | 6.5 | – | – | – | – | – | – | – | – | C/C1=C2/[N-][C@H]([C@H](CC(N)=O)[C@@]2(C)CCC(=O)NC[C@H](C)OP(=O)([O-])O[C@H]2[C@@H](O)[C@@H](n3cnc4cc(C)c(C)cc43)O[C@@H]2CO)[C@]2(C)N=C(/C(C)=C3N=C(/C=C4N=C1[C@@H](CCC(N)=O)C\4(C)C)[C@@H](CCC(N)=O)[C@]\3(C)CC(N)=O)[C@@H](CCC(N)=O)[C@]2(C)CC(N)=O.[Co+2] (stereo in doubt) [VB12, cobalamin] | –
2 | 98.92 | 98.97 | 99.1 | 98.94 | 8 | 7 | 7 | 7 | 98.79 | 98.46 | 98.97 | 98.94 | 5 | 5.5 | 5.5 | 5.5 | Cc1ncc(C[n+]2csc(CCO)c2C)c(N)n1 [VB1, thiamine] | Purity (radiochemical purity) ([1]; [^18F]PI-2620, 2 nM phosphate buffer and 10% ethanol, vitamin 0.78 mg/mL, 0 hr): 99.66%; Purity (radiochemical purity) ([1]; [^18F]PI-2620, 2 nM phosphate buffer and 10% ethanol, vitamin 0.78 mg/mL, 2 hr): 99.21%; Purity (radiochemical purity) ([1]; [^18F]PI-2620, 2 nM phosphate buffer and 10% ethanol, vitamin 0.78 mg/mL, 4 hr): 97.63%; Purity (radiochemical purity) ([1]; [^18F]PI-2620, 2 nM phosphate buffer and 10% ethanol, vitamin 0.78 mg/mL, 6 hr): 97.12%; PH (paper) ([2]; 2 nM phosphate buffer and 10% ethanol, vitamin 0.78 mg/mL, 0 hr): 6; PH (paper) ([2]; 2 nM phosphate buffer and 10% ethanol, vitamin 0.78 mg/mL, 2 hr): 6; PH (paper) ([2]; 2 nM phosphate buffer and 10% ethanol, vitamin 0.78 mg/mL, 4 hr): 6; PH (paper) ([2]; 2 nM phosphate buffer and 10% ethanol, vitamin 0.78 mg/mL, 6 hr): 6
3 | 98.92 | 99.14 | 98.8 | 98.2 | 6 | 6 | 6 | 6 | 98.06 | 95.43 | 92.46 | 87.76 | 6 | 6 | 6 | 6 | Nc1ncnc2c1ncn2[C@@H]1O[C@H](COP(=O)(O)O)[C@@H](O)[C@H]1O [VB8, adenosine phosphate] | –
4 | 99.15 | 98.71 | 98.83 | 98.73 | 7 | 6 | 7 | 7 | 98.01 | 94.44 | 91.25 | 86.09 | 6 | 6 | 6 | 6 | Nc1ccc(C(=O)O)cc1 [VB10, 4-aminobenzoic acid] | –

The next lines start with the molecule.

Row | Compound | Purity (radiochemical purity) [1, 3] [%] | Purity (radiochemical purity) [1, 4] [%] | Purity (radiochemical purity) [1, 5] [%] | Purity (radiochemical purity) [1, 6] [%] | PH (paper) [2, 7] | PH (paper) [2, 8] | PH (paper) [2, 9] | PH (paper) [2, 10] | Purity (radiochemical purity) [1, 11] [%] | Purity (radiochemical purity) [1, 12] [%] | Purity (radiochemical purity) [1, 13] [%] | Purity (radiochemical purity) [1, 14] [%] | PH (paper) [2, 15] | PH (paper) [2, 16] | PH (paper) [2, 17] | PH (paper) [2, 18] | also measured
5 | O=C1O[C@H]([C@@H](O)CO)C([O-])=C1O.[Na+] [Na ascorbate, sodium ascorbate] | – | – | – | – | – | – | – | – | 99.05 | 95.53 | 93.77 | 90.04 | 6 | 6 | 6 | 6 | Purity (radiochemical purity) ([1]; [^18F]PI-2620, 100 mg sodium ascorbate, 2 nM phosphate buffer, 10% ethanol, 0 hr): 99.05%; Purity (radiochemical purity) ([1]; [^18F]PI-2620, 100 mg sodium ascorbate, 2 nM phosphate buffer, 10% ethanol, 2 hr): 95.53%; Purity (radiochemical purity) ([1]; [^18F]PI-2620, 100 mg sodium ascorbate, 2 nM phosphate buffer, 10% ethanol, 4 hr): 93.77%; Purity (radiochemical purity) ([1]; [^18F]PI-2620, 100 mg sodium ascorbate, 2 nM phosphate buffer, 10% ethanol, 6 hr): 90.04%; Purity (radiochemical purity) ([1]; [^18F]PI-2620, 200 mg sodium ascorbate, 2 nM phosphate buffer, 10% ethanol, 0 hr): 99.47%; Purity (radiochemical purity) ([1]; [^18F]PI-2620, 200 mg sodium ascorbate, 2 nM phosphate buffer, 10% ethanol, 2 hr): 96.95%; Purity (radiochemical purity) ([1]; [^18F]PI-2620, 200 mg sodium ascorbate, 2 nM phosphate buffer, 10% ethanol, 4 hr): 95.25%; Purity (radiochemical purity) ([1]; [^18F]PI-2620, 200 mg sodium ascorbate, 2 nM phosphate buffer, 10% ethanol, 6 hr): 93.00%; PH (paper) ([2]; 100 mg sodium ascorbate, 2 nM phosphate buffer, 10% ethanol, 0 hr): 6; PH (paper) ([2]; 100 mg sodium ascorbate, 2 nM phosphate buffer, 10% ethanol, 2 hr): 6; PH (paper) ([2]; 100 mg sodium ascorbate, 2 nM phosphate buffer, 10% ethanol, 4 hr): 6; PH (paper) ([2]; 100 mg sodium ascorbate, 2 nM phosphate buffer, 10% ethanol, 6 hr): 6; PH (paper) ([2]; 200 mg sodium ascorbate, 2 nM phosphate buffer, 10% ethanol, 0 hr): 6; PH (paper) ([2]; 200 mg sodium ascorbate, 2 nM phosphate buffer, 10% ethanol, 2 hr): 6; PH (paper) ([2]; 200 mg sodium ascorbate, 2 nM phosphate buffer, 10% ethanol, 4 hr): 6; PH (paper) ([2]; 200 mg sodium ascorbate, 2 nM phosphate buffer, 10% ethanol, 6 hr): 6
6 | [18F]c1cc(-c2ccc3c(n2)[nH]c2ccncc23)ccn1 [[^18F]PI-2620] | – | – | – | – | – | – | – | – | – | – | – | – | – | – | – | – | Purity (radiochemical purity) ([1]; [^18F]PI-2620 under three formulation conditions (ethanol with or without phosphate buffer), 6 hr): not decomposed at a high temperature
